Consider two compounds from ChEMBL document CHEMBL6182895, “Synthesis, in vitro and in vivo evaluation, and computational modeling analysis of thioxothiazolidine derivatives as highly potent and selective α-amylase inhibitors” (Eur J Med Chem, 2025).

Assay [1] can be described thus: Inhibition of alpha-amylase (unknown origin). Further details: species or system Homo sapiens.
Assay [2] in a line: Inhibition of alpha-amylase (unknown origin) using starch as substrate measured after 30 mins. Further details: species or system Homo sapiens.
Assay [3] can be described thus: Inhibition of porcine pancreatic alpha-amylase using starch as substrate preincubated for 10 mins followed by substrate addition and measured after 5 mins. Further details: species or system Sus scrofa.
Assay [4] can be described thus: Inhibition of porcine pancreatic alpha-amylase using starch as substrate preincubated for 10 mins followed by substrate addition and measured after 30 mins. Further details: species or system Sus scrofa.
For assay [5], the species on record is Homo sapiens. The assay can be described thus: Inhibition of alpha-amylase (unknown origin) using starch as substrate preincubated for 10 mins followed by substrate addition and measured after 10 mins relative to control. Further details: concentration or dose not given beside the values. Particulars: time 20.0 min.
A short description of assay [6]: Inhibition of alpha-amylase (unknown origin) using starch as substrate preincubated for 10 mins followed by substrate addition and measured after 10 mins. Further details: species or system Homo sapiens.
For assay [7], the species on record is Homo sapiens. The assay can be described thus: Inhibition of alpha-glucosidase (unknown origin) using p-NPG as substrate preincubated for 5 mins followed by substrate addition and measured after 30 mins relative to control. Further details: concentration or dose not given beside the values. Particulars: time 35.0 min.
The species named for assay [8] is Homo sapiens. The assay can be described thus: Mixed type of inhibition of alpha-amylase (unknown origin) assessed as change in Km and Vmax of substrate using starch as substrate and measured after 10 mins by Lineweaver-burk plot analysis.
Assay [9] has as its system Rattus norvegicus. The assay can be described thus: Antidiabetic activity against streptozotocin-induced diabetic Wistar rat model assessed as blood glucose level at 50 mg/kg, po and measured on day 1 (reference value: 324.7 +/-6.24 mg/dl). The assay is classed as functional. The settings on record: time 1 day.
In assay [10] the test system is Rattus norvegicus. The experiment in a line: Antidiabetic activity against streptozotocin-induced diabetic Wistar rat model assessed as blood glucose level at 50 mg/kg, po and measured on day 7 (reference value: 378.8 +/-6.48 mg/dl). The assay is classed as functional. Particulars: time 7 day.
The test system of assay [11] is Rattus norvegicus. The experiment in a line: Antidiabetic activity against streptozotocin-induced diabetic Wistar rat model assessed as blood glucose level at 50 mg/kg, po and measured on day 14 (reference value: 388.3 +/-6.34 mg/dl). The assay is classed as functional. Particulars: time 14 day.
For assay [12], the system named is Rattus norvegicus. The assay can be described thus: Antidiabetic activity against streptozotocin-induced diabetic Wistar rat model assessed as restoration of metabolic homeostasis by measuring serum urea level at 50 mg/kg, po measured on day 1 to 14 (reference value: 124.68 +/-2.16 mg/dl). Particulars: time 1-14 day. The assay is classed as functional.
The test system of assay [13] is Rattus norvegicus. The experiment in a line: Antidiabetic activity against streptozotocin-induced diabetic Wistar rat model assessed as restoration of metabolic homeostasis by measuring serum creatinine level at 50 mg/kg, po measured on day 1 to 14 (reference value: 116.81 +/-9.26 uM). The assay is classed as functional. The settings on record: time 1-14 day.
Assay [14] deals with Rattus norvegicus. The experiment in a line: Antidiabetic activity against streptozotocin-induced diabetic Wistar rat model assessed as restoration of metabolic homeostasis by measuring decrease in […] level in serum at 50 mg/kg, po measured on day 1 to 14. The assay is classed as functional, organism-based. The settings on record: time 1-14 day.
Assay [15] has as its system Rattus norvegicus. The assay can be described thus: Antidiabetic activity against streptozotocin-induced diabetic Wistar rat model assessed as restoration of metabolic homeostasis by measuring AST level in serum at 50 mg/kg, po measured on day 1 to 14 (reference value: 133.49 +/-2.52 IU/L). The assay is classed as functional. Particulars: time 1-14 day.
The test system of assay [16] is Rattus norvegicus. The assay can be described thus: Antidiabetic activity against streptozotocin-induced diabetic Wistar rat model assessed as restoration of metabolic homeostasis by measuring ALT level in serum at 50 mg/kg, po measured on day 1 to 14 (reference value: 35.2 +/-1.58 IU/L). The settings on record: time 1-14 day. The assay is classed as functional.

Assay [17] has as its system Rattus norvegicus. The assay can be described thus: Antidiabetic activity against streptozotocin-induced diabetic Wistar rat model assessed as restoration of metabolic homeostasis by measuring ALP level in serum at 50 mg/kg, po measured on day 1 to 14 (reference value: 195.13 +/-1.08 IU/L). The assay is classed as functional. Particulars: time 1-14 day.
The test system of assay [18] is Rattus norvegicus. The assay can be described thus: Protection against diabetes-induced organ dysfunction in streptozotocin-induced diabetic Wistar rat model assessed as reduction in liver damage by measuring fewer congestive blood vessels, reduced hepatocyte ballooning with fewer lipid droplets at 50 mg/kg, po and measured on day 14 by Hematoxylin-Eosin staining based analysis. The assay is classed as functional, organism-based. Particulars: time 14.0 day.

Assay [19] deals with Rattus norvegicus. The assay can be described thus: Protection against diabetes-induced organ dysfunction in streptozotocin-induced diabetic Wistar rat model assessed as reduction in kidney damage by measuring kidney with less severe retraction and swelling with measurable hemorrhages in renal tubules and glomeruli at 50 mg/kg, po and measured on day 14 by Hematoxylin-Eosin staining based analysis. The assay is classed as functional, organism-based. Particulars: time 14.0 day.

Assay [20] deals with Rattus norvegicus. The experiment in a line: Protection against diabetes-induced organ dysfunction in streptozotocin-induced diabetic Wistar rat model assessed as reduction in pancreas damage by measuring visible improvement in islet structure with noticeable signs of atrophy remained at 50 mg/kg, po and measured on day 14 by Hematoxylin-Eosin staining based analysis. The assay is classed as functional, organism-based. Particulars: time 14.0 day.

The species named for assay [21] is Homo sapiens. The experiment in a line: Potency index, ratio of acarbose IC50 to test compound IC50 for inhibition of alpha-amylase (unknown origin) using starch as substrate preincubated for 10 mins followed by substrate addition and measured after 10 mins. The settings on record: time 20.0 min.
The test system of assay [22] is Rattus norvegicus. The assay can be described thus: Antidiabetic activity against streptozotocin-induced diabetic Wistar rat model assessed as blood glucose level at 10 mg/kg, po and measured on day 1 (reference value: 324.7 +/-6.24 mg/dl). The settings on record: time 1 day. The assay is classed as functional.
The subject of assay [23] is Rattus norvegicus. The experiment in a line: Antidiabetic activity against streptozotocin-induced diabetic Wistar rat model assessed as blood glucose level at 10 mg/kg, po and measured on day 7 (reference value: 378.8 +/-6.48 mg/dl). The assay is classed as functional. Particulars: time 7 day.
For assay [24], the system named is Rattus norvegicus. The assay can be described thus: Antidiabetic activity against streptozotocin-induced diabetic Wistar rat model assessed as blood glucose level at 10 mg/kg, po and measured on day 14 (reference value: 388.3 +/-6.34 mg/dl). The assay is classed as functional. Particulars: time 14 day.
The subject of assay [25] is Rattus norvegicus. The assay can be described thus: Antidiabetic activity against streptozotocin-induced diabetic Wistar rat model assessed as restoration of metabolic homeostasis by measuring serum urea level at 10 mg/kg, po measured on day 1 to 14 (reference value: 124.68 +/-2.16 mg/dl). The assay is classed as functional. Particulars: time 1-14 day.
Assay [26] deals with Rattus norvegicus. The experiment in a line: Antidiabetic activity against streptozotocin-induced diabetic Wistar rat model assessed as restoration of metabolic homeostasis by measuring serum creatinine level at 10 mg/kg, po measured on day 1 to 14 (reference value: 116.81 +/-9.26 uM). The assay is classed as functional. Particulars: time 1-14 day.
Assay [27] relates to Rattus norvegicus. The assay can be described thus: Antidiabetic activity against streptozotocin-induced diabetic Wistar rat model assessed as restoration of metabolic homeostasis by measuring decrease in […] level in serum at 10 mg/kg, po measured on day 1 to 14. The assay is classed as functional, organism-based. Particulars: time 1-14 day.
The test system of assay [28] is Rattus norvegicus. The assay can be described thus: Antidiabetic activity against streptozotocin-induced diabetic Wistar rat model assessed as restoration of metabolic homeostasis by measuring AST level in serum at 10 mg/kg, po measured on day 1 to 14 (reference value: 133.49 +/-2.52 IU/L). The assay is classed as functional. The settings on record: time 1-14 day.

Assay [29] concerns Rattus norvegicus. The experiment in a line: Antidiabetic activity against streptozotocin-induced diabetic Wistar rat model assessed as restoration of metabolic homeostasis by measuring ALT level in serum at 10 mg/kg, po measured on day 1 to 14 (reference value: 35.2 +/-1.58 IU/L). The assay is classed as functional. The settings on record: time 1-14 day.
Assay [30] has as its system Rattus norvegicus. The experiment in a line: Antidiabetic activity against streptozotocin-induced diabetic Wistar rat model assessed as restoration of metabolic homeostasis by measuring ALP level in serum at 10 mg/kg, po measured on day 1 to 14 (reference value: 195.13 +/-1.08 IU/L). The assay is classed as functional. Particulars: time 1-14 day.
Assay [31] concerns Rattus norvegicus. The assay can be described thus: Protection against diabetes-induced organ dysfunction in streptozotocin-induced diabetic Wistar rat model assessed as reduction in liver damage by measuring improved hepatic sinusoid congestion and healthier hepatocytes with reduced lipid droplets at 10 mg/kg, po and measured on day 14 by Hematoxylin-Eosin staining based analysis. The assay is classed as functional, organism-based. Particulars: time 14.0 day.

Assay [32] concerns Rattus norvegicus. The assay can be described thus: Protection against diabetes-induced organ dysfunction in streptozotocin-induced diabetic Wistar rat model assessed as reduction in kidney damage by measuring kidney with structural improvement and reduced retraction, preserved glomeruli and less hemorrhages at 10 mg/kg, po and measured on day 14 by Hematoxylin-Eosin staining based analysis. The assay is classed as functional, organism-based. The settings on record: time 14.0 day.

The subject of assay [33] is Rattus norvegicus. The experiment in a line: Protection against diabetes-induced organ dysfunction in streptozotocin-induced diabetic Wistar rat model assessed as reduction in pancreas damage by measuring well preserved islet structure at 10 mg/kg, po and measured on day 14 by Hematoxylin-Eosin staining based analysis. The assay is classed as functional, organism-based. Particulars: time 14.0 day.

Active and inactive are the calls of the source. No cut-off for these calls is given here.

Turning to `C[C@H]1O[C@H](O[C@H]2[C@H](O)[C@@H](O)[C@@H](O[C@H]3[C@H](O)[C@@H](O)C(O)O[C@@H]3CO)O[C@@H]2CO)[C@H](O)[C@@H](O)[C@@H]1N[C@H]1C=C(CO)[C@@H](O)[C@H](O)[C@H]1O` (some centres not stated) [ACARBOSE], the IC50 (in general, the point on the concentration scale where inhibition reaches its midpoint) in assay [1] was 1060 nM; in assay [2], 12.5 nM; in [3] it was 1560 nM; in [4] it was 104000 nM; in [6] it was 951000 nM. Also, the inhibition (usually the percentage by which the read-out fell short of the control) in assay [5] was 81.2%; in assay [7], 76.4%. For the same compound, in [8], the inhibition entry is “Active”. Moreover, the Activity was found to be 315.8 mg/dL in assay [9]; 170.6 mg/dL in assay [10]; 119.7 mg/dL in [11]; 55.28 mg/dL in assay [12]; 80.21 µM in assay [13]; 48.87 IU/L in assay [15]. Further, the values for the Activity in assay [16] and in assay [17] were 12.14 IU/L and 145.34 IU/L, respectively. Also, the result in assay [14], in [18], in assay [19] and in [20] was Active.

On to `Cn1ccnc1/C=C1\SC(=S)N(CC(=O)Nc2ccc(C(F)(F)F)cc2)C1=O`, for which the inhibition turned out to be 80.4% in [5] and 6.43% in [7]. The compound further yielded an IC50 in [6] of 710 nM. Further, the Ratio IC50 in assay [21] was 1340. In addition, the inhibition entry in assay [8] is “Active”. The Activity in [22] amounted to 328.3 mg/dL; in assay [23], 149.7 mg/dL; in assay [24], 106.2 mg/dL; in assay [25], 57.31 mg/dL; in [26], 82.14 µM; in assay [28], 41.13 IU/L. The values for the Activity in [29] and in assay [30] were 12.04 IU/L and 138.41 IU/L, respectively. In addition, the result in [27], in assay [31], in assay [32] and in [33] was Active.
